Assay results: US20190330275A1 (priority 2016, published 2019)
Where “and” joins values, the source holds several entries; their conditions need not be identical. Equal values may be shown once. Entries after “also recorded” stand apart in the source; their conditions may differ. Peptide text beside a SMILES is read from it.

Key:
rat α3β4 nAChR = rat α3β4 nAChR (Rattus norvegicus, UniProt P04757+P12392); assay: cell-based
rat α6/α3β4 nAChR = rat α6/α3β4 nAChR (Rattus norvegicus, UniProt P04757+P12392+P43143); assay: cell-based
rat α6/α3β4 nAChR, sequence (P04757 whole entry, looked up): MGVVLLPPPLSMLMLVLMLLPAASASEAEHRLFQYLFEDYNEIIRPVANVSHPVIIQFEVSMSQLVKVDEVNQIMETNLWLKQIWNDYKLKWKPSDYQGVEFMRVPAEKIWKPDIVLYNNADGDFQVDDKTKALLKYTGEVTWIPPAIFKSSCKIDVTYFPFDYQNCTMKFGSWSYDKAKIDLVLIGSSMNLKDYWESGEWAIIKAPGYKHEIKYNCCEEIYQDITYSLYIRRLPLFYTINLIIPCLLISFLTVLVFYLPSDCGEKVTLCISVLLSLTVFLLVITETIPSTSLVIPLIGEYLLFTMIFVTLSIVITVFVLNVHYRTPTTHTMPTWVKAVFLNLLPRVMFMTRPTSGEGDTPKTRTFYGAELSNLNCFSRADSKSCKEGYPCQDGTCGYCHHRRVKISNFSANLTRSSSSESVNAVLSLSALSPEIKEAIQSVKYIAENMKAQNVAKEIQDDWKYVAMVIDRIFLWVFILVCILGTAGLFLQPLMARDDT
rat α6/α3β4 nAChR, sequence (P12392 whole entry, looked up): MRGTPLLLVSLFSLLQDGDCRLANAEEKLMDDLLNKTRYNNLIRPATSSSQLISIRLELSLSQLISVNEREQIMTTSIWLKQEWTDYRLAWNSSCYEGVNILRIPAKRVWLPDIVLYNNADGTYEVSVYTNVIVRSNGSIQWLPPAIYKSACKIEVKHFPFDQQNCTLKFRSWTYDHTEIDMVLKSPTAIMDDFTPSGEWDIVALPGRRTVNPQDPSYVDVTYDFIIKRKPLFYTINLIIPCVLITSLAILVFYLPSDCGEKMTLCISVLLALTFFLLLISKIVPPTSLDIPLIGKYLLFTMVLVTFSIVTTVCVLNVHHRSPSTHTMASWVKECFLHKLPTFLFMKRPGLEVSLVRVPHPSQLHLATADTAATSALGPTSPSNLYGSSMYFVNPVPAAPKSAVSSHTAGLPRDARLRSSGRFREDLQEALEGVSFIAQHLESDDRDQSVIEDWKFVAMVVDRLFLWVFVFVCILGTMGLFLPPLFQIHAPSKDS
rat α6/α3β4 nAChR, sequence (P43143 whole entry, looked up): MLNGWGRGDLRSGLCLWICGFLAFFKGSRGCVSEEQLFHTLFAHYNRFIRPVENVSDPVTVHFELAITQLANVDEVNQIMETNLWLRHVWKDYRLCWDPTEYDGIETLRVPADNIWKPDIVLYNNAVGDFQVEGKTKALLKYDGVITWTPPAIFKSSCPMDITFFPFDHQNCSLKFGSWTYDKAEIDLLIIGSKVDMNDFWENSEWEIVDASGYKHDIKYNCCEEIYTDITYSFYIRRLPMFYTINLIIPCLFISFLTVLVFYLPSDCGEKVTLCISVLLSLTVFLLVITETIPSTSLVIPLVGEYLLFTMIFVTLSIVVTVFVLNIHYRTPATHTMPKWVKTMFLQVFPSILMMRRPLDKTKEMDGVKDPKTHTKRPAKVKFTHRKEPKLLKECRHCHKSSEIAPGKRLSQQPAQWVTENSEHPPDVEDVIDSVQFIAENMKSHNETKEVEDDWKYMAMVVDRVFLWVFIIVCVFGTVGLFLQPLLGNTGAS

rat α3β4 nAChR, sequence (P04757 26-499 limits assumed): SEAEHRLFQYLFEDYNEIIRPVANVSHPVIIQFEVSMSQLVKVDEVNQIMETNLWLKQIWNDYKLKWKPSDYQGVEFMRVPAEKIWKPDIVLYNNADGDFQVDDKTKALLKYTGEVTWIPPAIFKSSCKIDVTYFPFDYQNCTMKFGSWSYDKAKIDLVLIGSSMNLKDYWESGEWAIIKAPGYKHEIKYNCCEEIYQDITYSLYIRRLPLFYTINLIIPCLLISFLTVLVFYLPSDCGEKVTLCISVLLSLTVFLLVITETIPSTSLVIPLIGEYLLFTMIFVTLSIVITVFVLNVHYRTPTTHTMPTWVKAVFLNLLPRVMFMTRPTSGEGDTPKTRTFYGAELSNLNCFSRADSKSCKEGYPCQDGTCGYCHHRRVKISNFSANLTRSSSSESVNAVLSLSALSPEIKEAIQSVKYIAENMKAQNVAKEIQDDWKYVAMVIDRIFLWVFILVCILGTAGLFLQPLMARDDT
rat α3β4 nAChR, sequence (P12392 21-495 limits assumed): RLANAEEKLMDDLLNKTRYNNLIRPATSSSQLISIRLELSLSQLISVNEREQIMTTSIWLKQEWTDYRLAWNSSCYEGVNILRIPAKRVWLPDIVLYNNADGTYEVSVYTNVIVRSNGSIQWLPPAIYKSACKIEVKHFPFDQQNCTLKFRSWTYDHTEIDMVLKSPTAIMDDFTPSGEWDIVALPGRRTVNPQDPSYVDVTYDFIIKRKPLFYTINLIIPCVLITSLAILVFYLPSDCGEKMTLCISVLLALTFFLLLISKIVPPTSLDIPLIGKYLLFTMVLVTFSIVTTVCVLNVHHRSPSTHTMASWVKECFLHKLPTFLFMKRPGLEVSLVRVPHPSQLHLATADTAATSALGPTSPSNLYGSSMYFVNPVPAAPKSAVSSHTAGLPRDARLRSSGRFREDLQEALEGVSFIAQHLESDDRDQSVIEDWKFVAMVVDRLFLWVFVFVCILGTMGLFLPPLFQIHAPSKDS

Compound	binding (blocking) activity to α3β4 nAChR compared with wild type TxID (rat α3β4 nAChR)	blocking of rat α3β4 nAChRs current (rat α3β4 nAChR)	binding (blocking) activity to α6/α3β4 nAChR compared with wild type TxID (rat α6/α3β4 nAChR)	α3β4 IC50 ratio (rat α3β4 nAChR)	IC50 ratio of α6/α3β4 vs. α3β4 (Discrimination) (rat α6/α3β4 nAChR)	α6/α3β4 IC50 ratio (rat α6/α3β4 nAChR)	also measured
CC[C@H](C)[C@@H]1NC(=O)[C@@H]2CCCN2C(=O)[C@H](CO)NC(=O)[C@H](CCSC)NC(=O)[C@H](C)NC(=O)[C@H](CC(C)C)NC(=O)[C@@H]2CSSC[C@H](NC(=O)CN)C(=O)N[C@@H](CSSC[C@@H](C(N)=O)NC1=O)C(=O)N[C@@H](CO)C(=O)N[C@@H](Cc1c[nH]cn1)C(=O)N1CCC[C@H]1C(=O)N[C@@H](C(C)C)C(=O)N2 [TxID[S9L]] (HELM PEPTIDE1{G.C.C.S.H.P.V.C.L.A.M.S.P.I.C.[am]}$PEPTIDE1,PEPTIDE1,2:R3-8:R3|PEPTIDE1,PEPTIDE1,3:R3-15:R3$$$V2.0)	not significantly different from the activity of the wild type TxID	strong blocking activities	not significantly different from the activity of the wild type TxID	–	–	–	current after 2 min of elution (rat α3β4 nAChR): ~0 nA; elution after blocking the α3β4 nAChR current (rat α3β4 nAChR): very slow
CC[C@H](C)[C@@H]1NC(=O)[C@@H]2CCCN2C(=O)[C@H](CO)NC(=O)[C@H](CCSC)NC(=O)[C@H](C)NC(=O)[C@H]([C@@H](C)O)NC(=O)[C@@H]2CSSC[C@H](NC(=O)CN)C(=O)N[C@@H](CSSC[C@@H](C(N)=O)NC1=O)C(=O)N[C@@H](CO)C(=O)N[C@@H](Cc1c[nH]cn1)C(=O)N1CCC[C@H]1C(=O)N[C@@H](C(C)C)C(=O)N2 [TxID[S9T]] (HELM PEPTIDE1{G.C.C.S.H.P.V.C.T.A.M.S.P.I.C.[am]}$PEPTIDE1,PEPTIDE1,2:R3-8:R3|PEPTIDE1,PEPTIDE1,3:R3-15:R3$$$V2.0)	not significantly different from the activity of the wild type TxID	–	not significantly different from the activity of the wild type TxID	–	–	–	–
CC[C@H](C)[C@@H]1NC(=O)[C@@H]2CCCN2C(=O)[C@H](CO)NC(=O)[C@H](CCSC)NC(=O)[C@H](C)NC(=O)[C@H](Cc2ccc(O)cc2)NC(=O)[C@@H]2CSSC[C@H](NC(=O)CN)C(=O)N[C@@H](CSSC[C@@H](C(N)=O)NC1=O)C(=O)N[C@@H](CO)C(=O)N[C@@H](Cc1c[nH]cn1)C(=O)N1CCC[C@H]1C(=O)N[C@@H](C(C)C)C(=O)N2 [TxID[S9Y]] (HELM PEPTIDE1{G.C.C.S.H.P.V.C.Y.A.M.S.P.I.C.[am]}$PEPTIDE1,PEPTIDE1,2:R3-8:R3|PEPTIDE1,PEPTIDE1,3:R3-15:R3$$$V2.0)	not significantly different from the activity of the wild type TxID	strong blocking activities	not significantly different from the activity of the wild type TxID	–	–	–	current after 2 min of elution (rat α3β4 nAChR): ~0 nA; elution after blocking the α3β4 nAChR current (rat α3β4 nAChR): very slow
CC[C@H](C)[C@@H]1NC(=O)[C@@H]2CCCN2C(=O)[C@H](CO)NC(=O)[C@H](CCSC)NC(=O)[C@H](C)NC(=O)[C@H](CCCCN)NC(=O)[C@@H]2CSSC[C@H](NC(=O)CN)C(=O)N[C@@H](CSSC[C@@H](C(N)=O)NC1=O)C(=O)N[C@@H](CO)C(=O)N[C@@H](Cc1c[nH]cn1)C(=O)N1CCC[C@H]1C(=O)N[C@@H](C(C)C)C(=O)N2 [TxID[S9K]] (HELM PEPTIDE1{G.C.C.S.H.P.V.C.K.A.M.S.P.I.C.[am]}$PEPTIDE1,PEPTIDE1,2:R3-8:R3|PEPTIDE1,PEPTIDE1,3:R3-15:R3$$$V2.0)	–	completely blocked	–	–	–	–	blocking effect on the current of rat α6/α3β4 nAChRs (rat α6/α3β4 nAChR): no blocking effect; blocking of α6/α3β4 nAChR current as part of the control current (rat α6/α3β4 nAChR): less than ¼; current blockade (rat α6/α3β4 nAChR): less than 50%
CC[C@H](C)[C@@H]1NC(=O)[C@@H]2CCCN2C(=O)[C@H](CO)NC(=O)[C@H](CCSC)NC(=O)[C@H](C)NC(=O)[C@H](CCC(=O)O)NC(=O)[C@@H]2CSSC[C@H](NC(=O)CN)C(=O)N[C@@H](CSSC[C@@H](C(N)=O)NC1=O)C(=O)N[C@@H](CO)C(=O)N[C@@H](Cc1c[nH]cn1)C(=O)N1CCC[C@H]1C(=O)N[C@@H](C(C)C)C(=O)N2 [TxID[S9E]] (HELM PEPTIDE1{G.C.C.S.H.P.V.C.E.A.M.S.P.I.C.[am]}$PEPTIDE1,PEPTIDE1,2:R3-8:R3|PEPTIDE1,PEPTIDE1,3:R3-15:R3$$$V2.0)	weak	–	completely lost; also recorded: completely loses the binding activity	–	–	–	blocking effect on the current of rat α6/α3β4 nAChRs (rat α6/α3β4 nAChR): no blocking activity; also recorded: no blocking effect
CSCC[C@@H]1NC(=O)[C@H](C)NC(=O)[C@H](CO)NC(=O)[C@@H]2CSSC[C@H](NC(=O)CN)C(=O)N[C@@H](CSSC[C@@H](C(N)=O)NC(=O)[C@H](Cc3ccc(O)cc3)NC(=O)[C@@H]3CCCN3C(=O)[C@H](CO)NC1=O)C(=O)N[C@@H](CO)C(=O)N[C@@H](Cc1c[nH]cn1)C(=O)N1CCC[C@H]1C(=O)N[C@@H](C(C)C)C(=O)N2 [TxID[I14Y]] (HELM PEPTIDE1{G.C.C.S.H.P.V.C.S.A.M.S.P.Y.C.[am]}$PEPTIDE1,PEPTIDE1,2:R3-8:R3|PEPTIDE1,PEPTIDE1,3:R3-15:R3$$$V2.0)	–	–	–	2.7	3.9	1.1	IC50 (rat α3β4 nAChR; α3β4 IC50 (half-blocking dose)): 10 nM; IC50 (rat α6/α3β4 nAChR; α6/α3β4 IC50 (half-blocking dose)): 38.7 nM
CC[C@H](C)[C@@H]1NC(=O)[C@@H]2CCCN2C(=O)[C@H](CO)NC(=O)[C@H](CCSC)NC(=O)[C@H](C)NC(=O)[C@H](C)NC(=O)[C@@H]2CSSC[C@H](NC(=O)CN)C(=O)N[C@@H](CSSC[C@@H](C(N)=O)NC1=O)C(=O)N[C@@H](CO)C(=O)N[C@@H](Cc1c[nH]cn1)C(=O)N1CCC[C@H]1C(=O)N[C@@H](C(C)C)C(=O)N2 [TxID[S9A]] (HELM PEPTIDE1{G.C.C.S.H.P.V.C.A.A.M.S.P.I.C.[am]}$PEPTIDE1,PEPTIDE1,2:R3-8:R3|PEPTIDE1,PEPTIDE1,3:R3-15:R3$$$V2.0)	no effect on the blocking activity	–	–	–	–	–	current blocked (rat α3β4 nAChR): 98% and 75%; blocking activity to α6β4* nAChRs subtype (rat α6/α3β4 nAChR): completely lost the blocking activity; current blocked (rat α6/α3β4 nAChR): 26%
CC[C@H](C)[C@@H]1NC(=O)[C@@H]2CCCN2C(=O)[C@H](CO)NC(=O)[C@H](CCSC)NC(=O)[C@H](C)NC(=O)[C@H](CO)NC(=O)[C@@H]2CSSC[C@H](NC(=O)CN)C(=O)N[C@@H](CSSC[C@@H](C(N)=O)NC1=O)C(=O)N[C@@H](C)C(=O)N[C@@H](Cc1c[nH]cn1)C(=O)N1CCC[C@H]1C(=O)N[C@@H](C(C)C)C(=O)N2 [TxID[S4A]] (HELM PEPTIDE1{G.C.C.A.H.P.V.C.S.A.M.S.P.I.C.[am]}$PEPTIDE1,PEPTIDE1,2:R3-8:R3|PEPTIDE1,PEPTIDE1,3:R3-15:R3$$$V2.0)	–	–	–	3.0	5.9	1.9	–
CC[C@H](C)[C@@H]1NC(=O)[C@@H]2CCCN2C(=O)[C@H](C)NC(=O)[C@H](CCSC)NC(=O)[C@H](C)NC(=O)[C@H](CO)NC(=O)[C@@H]2CSSC[C@H](NC(=O)CN)C(=O)N[C@@H](CSSC[C@@H](C(N)=O)NC1=O)C(=O)N[C@@H](CO)C(=O)N[C@@H](Cc1c[nH]cn1)C(=O)N1CCC[C@H]1C(=O)N[C@@H](C(C)C)C(=O)N2 [TxID[S12A]] (HELM PEPTIDE1{G.C.C.S.H.P.V.C.S.A.M.A.P.I.C.[am]}$PEPTIDE1,PEPTIDE1,2:R3-8:R3|PEPTIDE1,PEPTIDE1,3:R3-15:R3$$$V2.0)	–	–	–	4.8	2.3	1.2	–
